Data as given in paper PMC13080237, “Functional divergence of protein kinase A regulatory subunit Iβ variants: the importance of N3A motifs in PKA regulation” (The Febs Journal, 2025).

Key:
RIβ (RIβ A268; His-RIβ) [1] = target: T1, RIβ (RIβ A268; His-RIβ) (Homo sapiens, UniProt P31321, A268R); experiment: fluorescence polarization, direct titration; assay type: binding; conditions: labelled compound; 0.5 nM 8-Fluo-cAMP, RIβ R268 dilution series; 20 mM MOPS pH 7.4, 150 mM NaCl, room temperature; residue 268 in bovine RIα numbering (270 in human RIβ); read-out: affinity
T1 construct: gene PRKAR1B; full-length, N-terminal His-tag (pQTEV vector), E. coli TP2000 cells, Ni-NTA; dimer; 380 residues as printed

RIβ (RIβ A268; His-RIβ) [2] = target: T2, RIβ (RIβ A268; His-RIβ) (Homo sapiens, UniProt P31321); experiment: fluorescence polarization, direct titration; assay type: binding; conditions: labelled compound; 0.5 nM 8-Fluo-cAMP, RIβ dilution series; 20 mM MOPS pH 7.4, 150 mM NaCl, room temperature; read-out: affinity
T2 construct: gene PRKAR1B; full-length, N-terminal His-tag (pQTEV vector), E. coli TP2000 cells, Ni-NTA; dimer; 380 residues as printed

[3] = target: GFP2 fusion of human PKA Cα (BRET acceptor) (human) (UniProt P17612); experiment: FRET or BRET; BRET2 in living HEK293 cells; RLuc8 fused to the R subunit, GFP2 fused to the C subunit; 37 °C, HBSS w/o Mg2+/Ca2+ pH 7.4, coelenterazine 400a; time courses and end points (20 min); cells treated with buffer, 100 nM isoproterenol, or 50 uM forskolin + 100 uM IBMX

T1 sequence (P31321 2-381 A268R): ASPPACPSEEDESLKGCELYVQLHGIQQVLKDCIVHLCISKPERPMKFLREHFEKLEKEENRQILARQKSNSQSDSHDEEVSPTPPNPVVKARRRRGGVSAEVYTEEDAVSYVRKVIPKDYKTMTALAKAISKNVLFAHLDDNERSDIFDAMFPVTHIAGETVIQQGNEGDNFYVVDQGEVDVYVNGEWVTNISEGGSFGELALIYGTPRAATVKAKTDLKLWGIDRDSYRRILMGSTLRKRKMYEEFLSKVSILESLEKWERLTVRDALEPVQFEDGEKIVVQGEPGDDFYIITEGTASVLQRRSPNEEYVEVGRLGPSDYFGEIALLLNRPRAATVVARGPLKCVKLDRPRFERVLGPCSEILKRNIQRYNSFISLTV
T2 sequence (P31321 2-381): as the sequence (P31321 2-381 A268R) above, with R267A counted along it

| Kd (RIβ (RIβ A268; His-RIβ) [1]) | Kd (RIβ (RIβ A268; His-RIβ) [2]) | maximal cAMP-induced dissociation of the holoenzyme (%) [3] | Substance |
| --- | --- | --- | --- |
| 4 nM | 4 nM |  | 8‐(2‐[fluoresceinyl]aminoethylthio)‐cAMP [8-Fluo-cAMP] |
|  |  | 30% | RLuc8 fusion of human RIβ R268 (BRET donor) (natural protein) |
